Measurements reported in patent US10858335B2 (Rigel Pharmaceuticals, Inc., priority 2014, dated 2020).

What follows are compounds tested on GDF8 signaling (p-SMAD-3 (Ser423/425)) (assay: AlphaScreen SureFire SMAD3 (p-Ser423/425) assay, GDF8-stimulated cells (GDF pSMAD)). Settings: Mus musculus, MPC-11, GDF8-stimulated pSMAD3, MPC11; tested as the salt form given; read-out: GDF pSMAD (MPC11) (μM), inhibition of GDF8 signaling.
Format: cell-based

| IC50 | SMILES |
| --- | --- |
| 10.8 µM | Cc1cc(-c2ncccc2-c2ccc3ncnc(NC(C)C(N)=O)c3c2)ccc1F (stereo not shown) [compound 1027, 2-((6-(2-(4-fluoro-3-methylphenyl)pyridin-3-yl)quinazolin-4-yl)amino)propanamide] |
| 7.27 µM | Nc1ncnc2ccc(-c3cccnc3-c3ccccc3F)cc12 [compound 1003, 6-(2-(2-fluorophenyl)pyridin-3-yl)quinazolin-4-amine] |

The next lines start with the compound.

| SMILES | IC50 |
| --- | --- |
| Nc1ncnc2ccc(-c3cc(F)cnc3-c3cc(Cl)ccc3F)cc12 [compound 999, 6-(2-(5-chloro-2-fluorophenyl)-5-fluoropyridin-3-yl)quinazolin-4-amine] | 1.2 µM |
| Cc1cc(-c2ncccc2-c2ccc3ncsc3c2)c(C)cc1F [compound 1061] | 0.473 µM |
| c1cnc(-c2ccc3occc3c2)c(-c2ccc3ncsc3c2)c1 [compound 1073] | 0.48 µM |
| Cc1cc(-c2ncccc2-c2ccc3ncc(C#N)n3c2)c(C)cc1F [compound 1063] | 4.45 µM |

Same assay, conditions: Mus musculus, MPC-11, MPC11; GDF8-stimulated; p-SMAD3 AlphaScreen; read-out: GDF pSMAD (MPC11) (inhibition of GDF8 signaling)

| IC50 | SMILES |
| --- | --- |
| 0.142 µM | Cc1cc(-c2ncc(N)cc2-c2ccc3ncsc3c2)ccc1F [Compound 18, 5-(Benzo[d]thiazol-6-yl)-6-(4-fluoro-3-methylphenyl)pyridin-3-amine] |
| 0.0324 µM | Fc1ccc(-c2ncccc2-c2ccc3ncc(-c4ncn[nH]4)n3c2)cc1Cl [compound 844, 6-(2-(3-Chloro-4-fluorophenyl)pyridin-3-yl)-3-(1H-1,2,4-triazol-5-yl)imidazo[1,2-a]pyridine] |
| 0.959 µM | CCN(CC)CCOc1ncnc2ccc(-c3cccnc3-c3ccc(F)c(Cl)c3)cc12 [compound 438, 2-((6-(2-(3-Chloro-4-fluorophenyl)pyridin-3-yl)quinazolin-4-yl)oxy)-N,N-diethylethan-1-amine] |
| 0.507 µM | Fc1cc(F)c(-c2ncccc2-c2ccc3ncsc3c2)cc1F [compound 693, 6-(2-(2,4,5-Trifluorophenyl)pyridin-3-yl)benzo[d]thiazole] |
| 3.97 µM | Fc1cc(-c2ncccc2-c2ccc3ncsc3c2)cc(F)c1F [compound 666, 6-(2-(3,4,5-Trifluorophenyl)pyridin-3-yl)benzo[d]thiazole] |
| 3.37 µM | Fc1ccc(-c2ncccc2-c2ccc3ncnc(C4CC4)c3c2)cc1Cl [compound 507, 6-(2-(3-Chloro-4-fluorophenyl)pyridin-3-yl)-4-cyclopropylquinazoline] |
| 0.336 µM | Cc1cc(-c2ncc(N)cc2-c2ccc3[nH]ncc3c2)ccc1F [Compound 17, 6-(4-Fluoro-3-methylphenyl)-5-(1H-indazol-5-yl)pyridin-3-amine] |
| 4.86 µM | Cc1cc(-c2ncccc2-c2ccc3ncnc(NCc4cccnc4)c3c2)ccc1F [compound 416, 6-(2-(4-Fluoro-3-methylphenyl)pyridin-3-yl)-N-(pyridin-3-ylmethyl)quinazolin-4-amine] |
| 2.37 µM | Cc1ccc(Cl)c(-c2ncccc2-c2ccn3ncnc3c2)c1 [compound 876, 7-(2-(2-Chloro-5-methylphenyl)pyridin-3-yl)-[1,2,4]triazolo[1,5-a]pyridine] |
| 12.2 µM | Cc1cc(F)ccc1-c1ncccc1-c1ccc2ncnc(N)c2c1 [compound 467, 6-(2-(4-Fluoro-2-methylphenyl)pyridin-3-yl)quinazolin-4-amine] |
| 0.59 µM | Cc1cc(-c2ncc(NCc3cnc4ccccc4c3)cc2-c2ccc3ncsc3c2)ccc1F [compound 339, 5-(Benzo[d]thiazol-6-yl)-6-(4-fluoro-3-methylphenyl)-N-(quinolin-3-ylmethyl)pyridin-3-amine] |
| 0.25 µM | c1cc(-c2ncccc2-c2ccc3nccnc3c2)cc(C2CC2)c1 [compound 541, 6-(2-(3-Cyclopropylphenyl)pyridin-3-yl)quinoxaline] |
| 1.5 µM | Fc1cccc(-c2ncccc2-c2ccc3ncsc3c2)c1 [compound 658, 6-(2-(3-Fluorophenyl)pyridin-3-yl)benzo[d]thiazole] |
| 0.274 µM | Fc1cc(F)c(-c2ncccc2-c2ccn3nccc3c2)cc1Cl [compound 760, 5-(2-(5-Chloro-2,4-difluorophenyl)pyridin-3-yl)pyrazolo[1,5-a]pyridine] |

More lines, now with the values behind:

| SMILES | IC50 |
| --- | --- |
| Cc1cc(-c2ncccc2-c2ccc3[nH]ncc3c2)ccc1N [Compound 90, 4-(3-(1H-Indazol-5-yl)pyridin-2-yl)-2-methylbenzenamine] | 2.61 µM |
| Cc1cc(-c2ncccc2-c2ccc3ncn(C)c3c2)ccc1F [Compound 187, 6-(2-(4-Fluoro-3-methylphenyl)pyridin-3-yl)-1-methyl-1H-benzo[d]imidazole] | 0.228 µM |
| Clc1ccc(Cl)c(-c2ncccc2-c2ccn3nccc3n2)c1 [compound 920, 5-(2-(2,5-Dichlorophenyl)pyridin-3-yl)pyrazolo[1,5-a]pyrimidine] | 0.272 µM |
| Cc1ccc(-c2ncccc2-c2ccc3ncnc(N)c3c2)cc1F [compound 459, 6-(2-(3-Fluoro-4-methylphenyl)pyridin-3-yl)quinazolin-4-amine] | 11.5 µM |
| Clc1cccc(-c2ncccc2-c2ccn3nccc3n2)c1 [compound 916, 5-(2-(3-Chlorophenyl)pyridin-3-yl)pyrazolo[1,5-a]pyrimidine] | 0.104 µM |
| Fc1cc(F)c(-c2ncccc2-c2ccc3ncnn3c2)cc1Cl [compound 749, 6-(2-(5-Chloro-2,4-difluorophenyl)pyridin-3-yl)-[1,2,4]triazolo[1,5-a]pyridine] | 0.298 µM |
| Cc1cc(-c2ncccc2-c2ccc3ncnn3n2)ccc1F [compound 952, 6-(2-(4-Fluoro-3-methylphenyl)pyridin-3-yl)-[1,2,4]triazolo[1,5-b]pyridazine] | 0.391 µM |
| Cc1cccc(-c2ncccc2-c2cnc3cn[nH]c3c2)c1 [Compound 139, 6-(2-m-Tolylpyridin-3-yl)-1H-pyrazolo[4,3-b]pyridine] | 3.37 µM |
| CC(C)NC(=O)Nc1cnc(-c2cccc(C3CC3)c2)c(-c2ccc3[nH]ncc3c2)c1 [compound 213, 1-(6-(3-Cyclopropylphenyl)-5-(1H-indazol-5-yl)pyridin-3-yl)-3-isopropylurea] | 4.44 µM |
| FC(F)(F)c1cccc(-c2ncccc2-c2ccn3ncnc3c2)c1 [compound 879, 7-(2-(3-(Trifluoromethyl)phenyl)pyridin-3-yl)-[1,2,4]triazolo[1,5-a]pyridine] | 1.48 µM |
| Cc1cc(-c2ncc(NC3CCN(C)CC3)cc2-c2ccc3ncsc3c2)ccc1F [compound 247, 5-(Benzo[d]thiazol-6-yl)-6-(4-fluoro-3-methylphenyl)-N-(1-methylpiperidin-4-yl)pyridin-3-amine] | 3.2 µM |
| Nc1ncnc2ccc(-c3cccnc3-c3cccc(F)c3Cl)cc12 [compound 503, 6-(2-(2-Chloro-3-fluorophenyl)pyridin-3-yl)quinazolin-4-amine] | 4.82 µM |
| COc1ncnc2ccc(-c3cccnc3-c3ccc(F)c(C)c3)cc12 [compound 375, 6-(2-(4-Fluoro-3-methylphenyl)pyridin-3-yl)-4-methoxyquinazoline] | 0.152 µM |
| Cc1cc(-c2ncccc2-c2ccc3ncnc(Nc4cccc(C(N)=O)c4)c3c2)ccc1F [compound 410, 3-((6-(2-(4-Fluoro-3-methylphenyl)pyridin-3-yl)quinazolin-4-yl)amino)benzamide] | 4.13 µM |
| Fc1ccc(-c2ncccc2-c2ccn3nccc3n2)cc1Cl [compound 914, 5-(2-(3-Chloro-4-fluorophenyl)pyridin-3-yl)pyrazolo[1,5-a]pyrimidine] | 0.126 µM |
| CC(=O)Nc1cccc(-c2ncccc2-c2ccc3ncn(C)c(=O)c3c2)c1 [compound 380, N-(3-(3-(3-Methyl-4-oxo-3,4-dihydroquinazolin-6-yl)pyridin-2-yl)phenyl)acetamide] | 18.5 µM |
| COc1cc(NC(=O)c2cnc3ccc(-c4cccnc4-c4ccc(F)c(C)c4)cn23)cc(OC)c1OC [compound 573, 6-(2-(4-Fluoro-3-methylphenyl)pyridin-3-yl)-N-(3,4,5-trimethoxyphenyl)imidazo[1,2-a]pyridine-3-carboxamide] | 1.21 µM |
| Fc1ccc(-c2ncccc2-c2ccc3[nH]ncc3c2)cc1C(F)(F)F [Compound 93, 5-(2-(4-Fluoro-3-(trifluoromethyl)phenyl)pyridin-3-yl)-1H-indazole] | 4.83 µM |
| Cc1cc(-c2ncccc2-c2ccc3ncc(C(=O)NCCN4CCCC4)n3c2)ccc1F [compound 610, 6-(2-(4-Fluoro-3-methylphenyl)pyridin-3-yl)-N-(2-(pyrrolidin-1-yl)ethyl)imidazo[1,2-a]pyridine-3-carboxamide] | 0.648 µM |
| Cc1cc(-c2ncc(NCc3cnc[nH]3)cc2-c2ccc3ncsc3c2)ccc1F [compound 322, N-((1H-Imidazol-5-yl)methyl)-5-(benzo[d]thiazol-6-yl)-6-(4-fluoro-3-methylphenyl)pyridin-3-amine] | 0.253 µM |
| Cc1cc(-c2ncccc2-c2ccn3ncc(C(=O)NCCCN4CCN(C)CC4)c3c2)ccc1F [compound 676, 5-(2-(4-Fluoro-3-methylphenyl)pyridin-3-yl)-N-(3-(4-methylpiperazin-1-yl)propyl)pyrazolo[1,5-a]pyridine-3-carboxamide] | 0.267 µM |
| CCc1cccc(-c2ncccc2-c2cnc3[nH]ncc3c2)c1 [Compound 151, 5-(2-(3-Ethylphenyl)pyridin-3-yl)-1H-pyrazolo[3,4-b]pyridine] | 0.678 µM |
| O=C(NCCCN1CCCC1=O)c1cnc2ccc(-c3cccnc3-c3ccc(F)c(Cl)c3)cn12 [compound 727, 6-(2-(3-Chloro-4-fluorophenyl)pyridin-3-yl)-N-(3-(2-oxopyrrolidin-1-yl)propyl)imidazo[1,2-a]pyridine-3-carboxamide] | 0.886 µM |
| N#Cc1cccc(-c2ncccc2-c2cnc3[nH]ncc3c2)c1 [Compound 154, 3-(3-(1H-Pyrazolo[3,4-b]pyridin-5-yl)pyridin-2-yl)benzonitrile] | 1.31 µM |
| COc1cccc(-c2ncccc2-c2ccc3ncsc3c2)c1 [compound 669, 6-(2-(3-Methoxyphenyl)pyridin-3-yl)benzo[d]thiazole] | 0.499 µM |
| N#Cc1cnc2ccc(-c3cccnc3-c3ccc(F)cc3)cn12 [compound 625, 6-(2-(4-Fluorophenyl)pyridin-3-yl)imidazo[1,2-a]pyridine-3-carbonitrile] | 7.79 µM |
